Data on 21 molecules can be found in patent publication US11591355B2 (Peloton Therapeutics, Inc., priority 2017, dated 2023).

The target of one experiment is T1, Human CD73 (Homo sapiens, UniProt P21589).
T1 construct: purchased R&D Systems; host or cells: CHO cells
T1 sequence (P21589 27-549): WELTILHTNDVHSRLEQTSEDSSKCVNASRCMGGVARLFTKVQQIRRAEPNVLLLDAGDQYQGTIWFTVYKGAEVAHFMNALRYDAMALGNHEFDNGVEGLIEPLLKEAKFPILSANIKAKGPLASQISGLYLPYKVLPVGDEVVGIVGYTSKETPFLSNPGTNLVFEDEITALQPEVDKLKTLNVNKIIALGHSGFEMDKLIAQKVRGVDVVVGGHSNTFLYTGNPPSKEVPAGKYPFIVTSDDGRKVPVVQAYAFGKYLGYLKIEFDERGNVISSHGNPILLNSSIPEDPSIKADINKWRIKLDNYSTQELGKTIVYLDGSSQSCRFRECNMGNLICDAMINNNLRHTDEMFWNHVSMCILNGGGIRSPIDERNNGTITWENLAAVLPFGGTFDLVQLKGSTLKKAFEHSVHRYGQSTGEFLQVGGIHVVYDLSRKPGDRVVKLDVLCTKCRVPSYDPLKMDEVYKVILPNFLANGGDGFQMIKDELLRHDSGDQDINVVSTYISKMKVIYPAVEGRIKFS
The experiment in a line: CD73 Enzyme Assay. It counts as biochemical.
Conditions: not given
For `O=P(COC[C@H]1O[C@@H](n2ccc3c(NC4CCCC4)nc(Cl)nc32)[C@H](O)[C@@H]1O)(Oc1ccccc1)Oc1ccccc1` [Compound 215], the IC50 was over 1000 nM.
Still for that read-out and setting: next, `O=P(COC[C@H]1O[C@@H](n2ccc3c(NC4CCCC4)nc(Cl)nc32)[C@H](O)[C@@H]1O)(Oc1ccc(F)cc1)Oc1ccc(F)cc1` [Compound 227, (2R,3S,4R,5R)-2-[bis (4-fluorophenoxy)-phosphorylmethoxy-methyl]-5-[2-chloro-4-(cyclopentylamino)-pyrrolo[2,3-d]-pyrimidin-7-yl]tetra-hydrofuran-3,4-diol]: over 1000 nM; `O=P(O)(COC[C@H]1O[C@@H](n2ccc3c(NC4CCCC4)nc(Cl)nc32)[C@H](O)[C@@H]1O)Oc1ccc(F)cc1` [Compound 228, [(2R,3S,4R,5R)-5-[2-chloro-4-(cyclopentyl-amino)pyrrolo[2,3-d]-pyrimidin-7-yl]-3,4-dihydroxy-tetrahydro-furan-2-yl]methoxy-methyl-(4-fluoro-phenoxy)phosphinic acid]: over 1000 nM; `O=P(O)(COC[C@H]1O[C@@H](n2ccc3c(NC4CCCC4)nc(Cl)nc32)[C@H](O)[C@@H]1O)Oc1cccnc1` [Compound 233, [(2R,3S,4R,5R)-5-[2-chloro-4-(cyclopentyl-amino)pyrrolo[2,3-d]-pyrimidin-7-yl]-3,4-dihydroxy-tetrahydro-furan-2-yl]methoxy-methyl-(3-pyridyloxy)-phosphinic acid]: under 10 nM.

Still in this experiment, the particulars now being: 0.25 nM hCD73, 25 μM AMP, kinetic read at 360 nm; read-out: CD73 Enzyme Assay IC50.
In the case of `CC(C)OC(=O)OCOP(=O)(COC[C@H]1O[C@@H](n2ccc3c(NC4CCCC4)nc(Cl)nc32)[C@H](O)[C@@H]1O)OCOC(=O)OC(C)C` [Compound 214, [[(2R,3S,4R,5R)-5-[2-chloro-4-(cyclopentyl-amino)pyrrolo[2,3-d]-pyrimidin-7-yl]-3,4-dihydroxy-tetrahydro-furan-2-yl]methoxy-methyl-(isopropoxy-carbonyloxymethoxy)-phosphoryl]oxymethyl-isopropyl carbonate], the IC50 was over 1000 nM.
On to `C[C@@H](Nc1nc(Cl)nc2c1ncn2[C@@H]1O[C@H](COCP(=O)(O)O)[C@@H](O)[C@@]1(C)O)c1ccccc1` [Compound 216, [(2R,3R,4R,5R)-5-[2-chloro-6-[[(1R)-1-phenylethyl]amino]-purin-9-yl]-3,4-dihydroxy-4-methyl-tetrahydrofuran-2-yl]methoxymethyl-phosphonic acid], for which the IC50 was over 1000 nM.
On the same count and under the same terms, next, `O=P(O)(O)COC[C@H]1O[C@@H](n2ccc3c(N[C@H](CO)c4ccccc4)nc(Cl)nc32)[C@H](O)[C@@H]1O` [Compound 217, [(2R,3S,4R,5R)-5-[2-chloro-4-[[(1S)-2-hydroxy-1-phenyl-ethyl]amino]pyrrolo-[2,3-d]pyrimidin-7-yl]-3,4-dihydroxy-tetrahydrofuran-2-yl]methoxymethyl-phosphonic acid]: 100 to 1000 nM; `CCOC(=O)[C@H](C)NP(=O)(COC[C@H]1O[C@@H](n2ccc3c(NC4CCCC4)nc(Cl)nc32)[C@H](O)[C@@H]1O)N[C@@H](C)C(=O)OCC` [Compound 220, ethyl (2S)-2-[[[(2R,3S,4R,5R)-5-[2-chloro-4-(cyclo-pentylamino)pyrrolo-[2,3-d]pyrimidin-7-yl]-3,4-dihydroxy-tetra-hydrofuran-2-yl]-methoxymethyl-[[(1S)-2-ethoxy-1-methyl-2-oxo-ethyl]amino]-phosphoryl]amino]-propanoate]: over 1000 nM.
Same read-out and setting: the figure for `CC(C)(C)C(=O)COP(=O)(O)COC[C@H]1O[C@@H](n2ccc3c(NC4CCCC4)nc(Cl)nc32)[C@H](O)[C@@H]1O` [Compound 223, [(2R,3S,4R,5R)-5-[2-chloro-4-(cyclopentyl-amino)pyrrolo[2,3-d]-pyrimidin-7-yl]-3,4-dihydroxy-tetrahydro-furan-2-yl]methoxy-methyl-(3,3-dimethyl-2-oxo-butoxy)phos-phinic acid] is over 1000 nM; for `CC(C)OP(=O)(O)COC[C@H]1O[C@@H](n2ccc3c(NC4CCCC4)nc(Cl)nc32)[C@H](O)[C@@H]1O` [Compound 224, [(2R,3S,4R,5R)-5-[2-chloro-4-(cyclopentyl-amino)pyrrolo[2,3-d]-pyrimidin-7-yl]-3,4-dihydroxy-tetrahydro-furan-2-yl]methoxy-methyl-isopropoxy-phosphinic acid] it is over 1000 nM; for `Cc1oc(=O)oc1COP(=O)(O)COC[C@H]1O[C@@H](n2ccc3c(NC4CCCC4)nc(Cl)nc32)[C@H](O)[C@@H]1O` [Compound 225, [(2R,3S,4R,5R)-5-[2-chloro-4-(cyclopentyl-amino)pyrrolo[2,3-d]-pyrimidin-7-yl]-3,4-dihydroxy-tetrahydro-furan-2-yl]methoxy-methyl-[(5-methyl-2-oxo-1,3-dioxol-4-yl)-methoxy]phosphinic acid] it is 10 to 100 nM.
Consider `O=P(COC[C@H]1O[C@@H](n2ccc3c(NC4CCCC4)nc(Cl)nc32)[C@H](O)[C@@H]1O)(OCC(F)(F)F)OCC(F)(F)F` [Compound 226, (2R,3S,4R,5R)-2-[bis(2,2,2-trifluoro-ethoxy)phosphoryl-methoxymethyl]-5-[2-chloro-4-(cyclopentyl-amino)pyrrolo[2,3-d]-pyrimidin-7-yl]tetra-hydrofuran-3,4-diol], for which the IC50 was over 1000 nM.
Same read-out and setting: next, `CN(C)C(=O)COP(=O)(O)COC[C@H]1O[C@@H](n2ccc3c(NC4CCCC4)nc(Cl)nc32)[C@H](O)[C@@H]1O` [Compound 234, [(2R,3S,4R,5R)-5-[2-chloro-4-(cyclopentyl-amino)pyrrolo[2,3-d]-pyrimidin-7-yl]-3,4-dihydroxy-tetrahydro-furan-2-yl]methoxy-methyl-[2-(dimethyl-amino)-2-oxo-ethoxy]-phosphinic acid]: 100 to 1000 nM; `O=C(OCOP(=O)(O)COC[C@H]1O[C@@H](n2ccc3c(NC4CCCC4)nc(Cl)nc32)[C@H](O)[C@@H]1O)N1CCOCC1` [Compound 237, [(2R,3S,4R,5R)-5-[2-chloro-4-(cyclopentyl-amino)pyrrolo[2,3-d]-pyrimidin-7-yl]-3,4-dihydroxy-tetrahydro-furan-2-yl]methoxy-methyl-(morpholine-4-carbonyloxy-methoxy)phosphinic acid]: 10 to 100 nM.
Still for that read-out and setting: the figure for `O=C(OCOP(=O)(COC[C@H]1O[C@@H](n2ccc3c(NC4CCCC4)nc(Cl)nc32)[C@H](O)[C@@H]1O)OCOC(=O)N1CCOCC1)N1CCOCC1` [Compound 238, [[(2R,3S,4R,5R)-5-[2-chloro-4-(cyclopentyl-amino)pyrrolo[2,3-d]-pyrimidin-7-yl]-3,4-dihydroxy-tetrahydro-furan-2-yl]methoxy-methyl-(morpholine-4-carbonyloxymeth-oxy)phosphoryl]oxy-methyl morpholine-4-carboxylate] is 100 to 1000 nM; for `O=P(O)(O)COC[C@H]1O[C@@H](n2ccc3c(N[C@@H]4CCNC4)nc(Cl)nc32)[C@H](O)[C@@H]1O` [Compound 241, [(2R,3S,4R,5R)-5-[2-chloro-4-[[(3R)-pyrrolidin-3-yl]amino]-pyrrolo[2,3-d]pyrimidin-7-yl]-3,4-dihydroxy-tetrahydrofuran-2-yl]-methoxymethylphos-phonic acid] it is 100 to 1000 nM.
On the same count and under the same terms, next, `O=P(O)(O)COC[C@H]1O[C@@H](n2ccc3c(N[C@H]4CCNC4)nc(Cl)nc32)[C@H](O)[C@@H]1O` [Compound 242, [(2R,3S,4R,5R)-5-[2-chloro-4-[[(3S)-pyrrolidin-3-yl]-amino]pyrrolo[2,3-d]-pyrimidin-7-yl]-3,4-dihydroxy-tetrahydro-furan-2-yl]methoxy-methylphosphonic acid]: over 1000 nM.
`O=P(O)(O)COC[C@H]1O[C@@H](n2ccc3c(NC4CNC4)nc(Cl)nc32)[C@H](O)[C@@H]1O` [Compound 245, [(2R,3S,4R,5R)-5-[4-(azetidin-3-ylamino)-2-chloro-pyrrolo[2,3-d]pyrimidin-7-yl]-3,4-dihydroxy-tetrahydro-furan-2-yl]methoxy-methylphosphonic acid]: the IC50 is 100 to 1000 nM.
On the same count and under the same terms, next, `CCCCCCCCCCCCCCCCOCCCOP(=O)(O)COC[C@H]1O[C@@H](n2ccc3c(NC4CCCC4)nc(Cl)nc32)[C@H](O)[C@@H]1O` [Compound 246, [(2R,3S,4R,5R)-5-[2-chloro-4-(cyclopentyl-amino)pyrrolo[2,3-d]-pyrimidin-7-yl]-3,4-dihydroxy-tetrahydro-furan-2-yl]methoxy-methyl-(3-hexadecoxy-propoxy)phosphinic acid]: over 1000 nM; `CN(C)CCOc1nc(NC2CCCC2)c2ccn([C@@H]3O[C@H](COCP(=O)(O)O)[C@@H](O)[C@H]3O)c2n1` [Compound 259, [(2R,3S,4R,5R)-5-[4-(cyclopentylamino)-2-[2-(dimethylamino)-ethoxy]pyrrolo[2,3-d]-pyrimidin-7-yl]-3,4-dihydroxy-tetrahydro-furan-2-yl]methoxy-methylphosphonic acid]: 100 to 1000 nM; `O=P(O)(O)COC[C@H]1O[C@@H](n2ccc3c(NC4CCCC4)nc(OCc4ccccn4)nc32)[C@H](O)[C@@H]1O` [Compound 264, [(2R,3S,4R,5R)-5-[4-(cyclopentylamino)-2-(2-pyridylmethoxy)-pyrrolo[2,3-d]pyrimidin-7-yl]-3,4-dihydroxy-tetrahydrofuran-2-yl]-methoxymethylphos-phonic acid]: 100 to 1000 nM.
